Like-named read-outs stand apart in the source and are kept apart here.
Tests used:
Format in all cases: cell-based
rat TRPA1 = target: T1, rat TRPA1 (Rattus norvegicus, UniProt Q6RI86); assay: TRPA1-mediated elevation of intracellular Ca2+ (Fluo-4) in transfected HEK-293 cells; details: for TRPA1 Efficacy (%ITC 100 μM): percentage of the effect of 100 μM allylisothiocyanate on [Ca2+]i
T1 construct: expressed in transfected cells; host or cells: HEK-293
Experimental: (§1) Assays of rat TRPA1, TRPV2, TRPV3, TRPV4, and TRPM8 or human TRPV1 mediated elevation of intracellular Ca ^2+ in transfected HEK-293 cells were performed with a continuous monitoring of [Ca ^2+]i during the experiments. […] Cell fluorescence before and after the addition of various concentrations of test compounds was measured, normalizing the effects against the response to ionomycin (IM, 4 μM). The values of the effect on [Ca^2+]i in HEK-293 cells not transfected were used as baseline and subtracted from the values obtained from transfected cells. For TRPA1, agonist efficacy was expressed as a percentage of the effect on [Ca ^2+]i observed with 100 μM allylisothiocyanate. […] In the TRPV3 assay, TRPV3-expressing HEK293 cells were first sensitized with the structurally unrelated agonist 2-aminoethoxydiphenyl borate (100 μM). Antagonist/desensitizing behavior is evaluated against the agonist of the TRP analyzed by adding the compounds directly in the quartz cuvette 5 min before stimulation of cells with the agonist. […] Dose-response curve fitting (sigmoidal dose-response variable slope) and parameter estimation were performed with Graph-Pad Prism8 (GraphPad Software Inc., San Diego, CA, USA). All determinations were performed at least in triplicate.

rat TRPM8 = target: T2, rat TRPM8 (Rattus norvegicus, UniProt Q8R455); assay: TRPM8 antagonism of icilin-induced intracellular Ca2+ elevation (Fluo-4) in transfected HEK-293 cells; details: compound added 5 min before agonist icilin 0.25 μM
T2 construct: expressed in transfected cells; host or cells: HEK-293
T2 sequence (Q8R455 whole entry): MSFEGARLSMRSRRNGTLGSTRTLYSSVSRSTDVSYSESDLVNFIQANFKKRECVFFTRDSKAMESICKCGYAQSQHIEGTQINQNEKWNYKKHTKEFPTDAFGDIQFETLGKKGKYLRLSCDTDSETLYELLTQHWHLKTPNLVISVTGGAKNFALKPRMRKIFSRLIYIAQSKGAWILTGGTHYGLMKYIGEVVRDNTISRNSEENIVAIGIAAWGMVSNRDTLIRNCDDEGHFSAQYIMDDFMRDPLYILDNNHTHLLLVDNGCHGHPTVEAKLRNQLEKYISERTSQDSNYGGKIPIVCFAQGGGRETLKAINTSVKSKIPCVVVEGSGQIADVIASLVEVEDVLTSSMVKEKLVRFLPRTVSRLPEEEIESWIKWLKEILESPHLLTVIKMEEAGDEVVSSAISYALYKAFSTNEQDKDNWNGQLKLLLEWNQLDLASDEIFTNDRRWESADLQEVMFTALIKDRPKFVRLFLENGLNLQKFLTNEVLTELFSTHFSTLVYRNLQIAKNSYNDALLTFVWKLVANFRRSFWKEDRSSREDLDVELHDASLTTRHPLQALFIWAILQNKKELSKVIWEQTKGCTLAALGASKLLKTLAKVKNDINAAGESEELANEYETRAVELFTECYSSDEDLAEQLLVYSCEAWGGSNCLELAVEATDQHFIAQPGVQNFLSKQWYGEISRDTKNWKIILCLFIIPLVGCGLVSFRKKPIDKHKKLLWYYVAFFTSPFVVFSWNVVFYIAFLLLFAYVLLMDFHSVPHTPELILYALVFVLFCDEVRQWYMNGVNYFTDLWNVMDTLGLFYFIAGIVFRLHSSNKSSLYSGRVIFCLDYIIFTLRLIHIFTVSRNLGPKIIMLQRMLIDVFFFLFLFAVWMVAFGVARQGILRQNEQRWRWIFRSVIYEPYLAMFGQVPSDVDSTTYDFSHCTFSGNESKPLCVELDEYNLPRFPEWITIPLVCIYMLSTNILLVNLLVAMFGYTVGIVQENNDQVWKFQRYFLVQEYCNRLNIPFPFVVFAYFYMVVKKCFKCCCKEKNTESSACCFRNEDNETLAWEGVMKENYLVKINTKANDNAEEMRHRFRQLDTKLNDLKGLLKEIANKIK
Experimental: as §1

rat TRPV3 = target: T3, rat TRPV3 (Rattus norvegicus, UniProt Q4QYD9); assay: TRPV3-mediated elevation of intracellular Ca2+ (Fluo-4) in transfected HEK-293 cells; details: for IC50: antagonist/desensitizing, compound added 5 min before agonist thymol 100 μM; for TRPV3 Efficacy (% IM 4 μM): percentage of the response to ionomycin 4 μM, cells sensitized with 2-aminoethoxydiphenyl borate 100 μM; for EC50: half-maximal increase in [Ca2+]i, HEK-293, read-out: TRPV3 Potency EC50
T3 construct: expressed in transfected cells; host or cells: HEK-293
T3 sequence (Q4QYD9 1-791): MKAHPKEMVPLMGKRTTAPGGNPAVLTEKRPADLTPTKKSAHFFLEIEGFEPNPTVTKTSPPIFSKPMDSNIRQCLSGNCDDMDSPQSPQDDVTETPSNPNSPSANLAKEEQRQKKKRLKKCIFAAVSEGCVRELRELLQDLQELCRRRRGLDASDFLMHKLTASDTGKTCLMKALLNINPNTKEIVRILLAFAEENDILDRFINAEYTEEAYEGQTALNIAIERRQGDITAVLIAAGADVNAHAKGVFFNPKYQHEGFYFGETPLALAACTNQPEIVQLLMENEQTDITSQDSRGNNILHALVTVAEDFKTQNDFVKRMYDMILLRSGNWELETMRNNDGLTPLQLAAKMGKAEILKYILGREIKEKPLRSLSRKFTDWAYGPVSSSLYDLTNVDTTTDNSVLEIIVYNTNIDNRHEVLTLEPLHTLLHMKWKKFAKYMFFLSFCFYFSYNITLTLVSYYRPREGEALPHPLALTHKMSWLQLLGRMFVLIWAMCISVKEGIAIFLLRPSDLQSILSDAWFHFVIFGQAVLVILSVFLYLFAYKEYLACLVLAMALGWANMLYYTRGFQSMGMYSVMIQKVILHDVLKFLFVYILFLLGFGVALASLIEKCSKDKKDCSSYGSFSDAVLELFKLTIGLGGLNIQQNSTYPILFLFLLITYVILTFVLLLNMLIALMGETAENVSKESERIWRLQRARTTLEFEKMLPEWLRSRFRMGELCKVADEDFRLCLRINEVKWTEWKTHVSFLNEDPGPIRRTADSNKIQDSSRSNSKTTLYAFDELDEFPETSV
Experimental: Effects of compounds on intracellular Ca^2+ concentration ([Ca^2+]i) were determined using Fluo-4, a selective intracellular fluorescent probe for Ca ^2+. Assays of rat TRPA1, TRPV2, TRPV3, TRPV4, and TRPM8 or human TRPV1 mediated elevation of intracellular Ca ^2+ in transfected HEK-293 cells were performed with a continuous monitoring of [Ca ^2+]i during the experiments. Briefly, human embryonic kidney (HEK-293) cells, stably transfected with rat TRPA1, TRPV2, TRPV3, TRPV4, and TRPM8 or human TRPV1 (selected by geneticin 600 μg mL ^−1) or not transfected, were cultured in EMEM+ 2 mM glutamine + 1% nonessential amino acids +10% FBS and maintained at 37 °C with 5% CO2. TRP-HEK-293 cells express stably high levels of TRP transcripts, while these transcripts were virtually absent in wild-type HEK-293 cells as checked by real-time PCR. On the day of the experiment, the cells were loaded for 1 h in the dark at room temperature with Fluo-4 AM (4 μM in DMSO containin 0.02% Pluronic F-127). The cells were rinsed, resuspended in Tyrode’s solution (145 mM NaCl, 2.5 mM KCl, 1.5 mM CaCl2, 1.2 mM MgCl2, 10 mM D-glucose, and 10 mM HEPES, pH 7.4), and transferred to a quartz cuvette of a spectrofluorimeter (PerkinElmer LS50B; λEX = 488 nm, λEM = 516 nm) equipped with a PTP-1 fluorescence Peltier system (PerkinElmer Life and Analytical Sciences, Waltham, MA, USA) under continuous stirring. Cell fluorescence before and after the addition of various concentrations of test compounds was measured, normalizing the effects against the response to ionomycin (IM, 4 μM). The values of the effect on [Ca^2+]i in HEK-293 cells not transfected were used as baseline and subtracted from the values obtained from transfected cells. For TRPA1, agonist efficacy was expressed as a percentage of the effect on [Ca ^2+]i observed with 100 μM allylisothiocyanate. The potency of the compounds (EC50 values) is determined as the concentration required to produce half-maximal increases in [Ca ^2+]i. In the TRPV3 assay, TRPV3-expressing HEK293 cells were first sensitized with the structurally unrelated agonist 2-aminoethoxydiphenyl borate (100 μM). Antagonist/desensitizing behavior is evaluated against the agonist of the TRP analyzed by adding the compounds directly in the quartz cuvette 5 min before stimulation of cells with the agonist. Allylisothiocyanate (100 μM) was used for TRPA1, capsaicin (0.1 μM) for TRPV1, cannabidiol (2 μM) for TRPV2, thymol (100 μM) for TRPV3, GSK1016790A (10 nM) for TRPV4, and icilin (0.25 μM) for TRPM8. The IC50 value was expressed as the concentration exerting a half-maximal inhibition of agonist effect, taking as 100% the effect on [Ca^2+]i exerted by the agonist alone. Dose-response curve fitting (sigmoidal dose-response variable slope) and parameter estimation were performed with Graph-Pad Prism8 (GraphPad Software Inc., San Diego, CA, USA). All determinations were performed at least in triplicate.

rat TRPV4 = target: T4, rat TRPV4 (Rattus norvegicus, UniProt Q9ERZ8); assay: TRPV4-mediated elevation of intracellular Ca2+ (Fluo-4) in transfected HEK-293 cells; details: for TRPV4 Efficacy (% IM 4 μM): percentage of the response to ionomycin 4 μM
T4 construct: expressed in transfected cells; host or cells: HEK-293
T4 sequence (Q9ERZ8 whole entry): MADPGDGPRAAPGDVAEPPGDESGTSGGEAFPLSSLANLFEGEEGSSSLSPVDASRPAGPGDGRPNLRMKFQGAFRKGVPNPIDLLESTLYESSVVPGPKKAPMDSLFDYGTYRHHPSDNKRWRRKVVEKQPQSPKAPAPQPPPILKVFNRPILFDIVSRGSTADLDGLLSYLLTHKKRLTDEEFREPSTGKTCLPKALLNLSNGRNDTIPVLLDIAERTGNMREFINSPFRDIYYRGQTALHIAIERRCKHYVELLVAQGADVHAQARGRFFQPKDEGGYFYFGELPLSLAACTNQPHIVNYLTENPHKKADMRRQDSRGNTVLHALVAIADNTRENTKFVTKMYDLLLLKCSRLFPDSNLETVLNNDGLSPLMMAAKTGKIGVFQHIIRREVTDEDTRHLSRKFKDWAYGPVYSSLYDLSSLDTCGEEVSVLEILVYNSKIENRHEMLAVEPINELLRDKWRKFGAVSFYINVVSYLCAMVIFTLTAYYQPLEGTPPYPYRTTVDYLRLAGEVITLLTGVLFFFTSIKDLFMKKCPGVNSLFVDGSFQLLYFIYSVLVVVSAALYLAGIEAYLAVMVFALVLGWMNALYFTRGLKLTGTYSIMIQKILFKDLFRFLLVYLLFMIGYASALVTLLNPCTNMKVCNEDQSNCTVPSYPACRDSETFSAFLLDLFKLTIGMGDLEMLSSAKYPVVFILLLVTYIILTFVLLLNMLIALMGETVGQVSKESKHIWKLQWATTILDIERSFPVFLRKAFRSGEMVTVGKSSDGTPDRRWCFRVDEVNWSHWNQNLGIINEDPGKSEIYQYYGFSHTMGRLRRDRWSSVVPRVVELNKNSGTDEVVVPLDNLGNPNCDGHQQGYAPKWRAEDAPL
Experimental: as §1

[1] = antagonist/desensitizing, compound added 5 min before agonist AITC 100 μM, read-out: IC50 TRPA1
[2] = half-maximal increase in [Ca2+]i, HEK-293, read-out: TRPA1 Potency EC50
[3] = antagonist, read-out: IC50 TRPM8
[4] = antagonist/desensitizing, compound added 5 min before agonist GSK1016790A 10 nM, read-out: IC50 TRPV4

T1 sequence (Q6RI86 whole entry): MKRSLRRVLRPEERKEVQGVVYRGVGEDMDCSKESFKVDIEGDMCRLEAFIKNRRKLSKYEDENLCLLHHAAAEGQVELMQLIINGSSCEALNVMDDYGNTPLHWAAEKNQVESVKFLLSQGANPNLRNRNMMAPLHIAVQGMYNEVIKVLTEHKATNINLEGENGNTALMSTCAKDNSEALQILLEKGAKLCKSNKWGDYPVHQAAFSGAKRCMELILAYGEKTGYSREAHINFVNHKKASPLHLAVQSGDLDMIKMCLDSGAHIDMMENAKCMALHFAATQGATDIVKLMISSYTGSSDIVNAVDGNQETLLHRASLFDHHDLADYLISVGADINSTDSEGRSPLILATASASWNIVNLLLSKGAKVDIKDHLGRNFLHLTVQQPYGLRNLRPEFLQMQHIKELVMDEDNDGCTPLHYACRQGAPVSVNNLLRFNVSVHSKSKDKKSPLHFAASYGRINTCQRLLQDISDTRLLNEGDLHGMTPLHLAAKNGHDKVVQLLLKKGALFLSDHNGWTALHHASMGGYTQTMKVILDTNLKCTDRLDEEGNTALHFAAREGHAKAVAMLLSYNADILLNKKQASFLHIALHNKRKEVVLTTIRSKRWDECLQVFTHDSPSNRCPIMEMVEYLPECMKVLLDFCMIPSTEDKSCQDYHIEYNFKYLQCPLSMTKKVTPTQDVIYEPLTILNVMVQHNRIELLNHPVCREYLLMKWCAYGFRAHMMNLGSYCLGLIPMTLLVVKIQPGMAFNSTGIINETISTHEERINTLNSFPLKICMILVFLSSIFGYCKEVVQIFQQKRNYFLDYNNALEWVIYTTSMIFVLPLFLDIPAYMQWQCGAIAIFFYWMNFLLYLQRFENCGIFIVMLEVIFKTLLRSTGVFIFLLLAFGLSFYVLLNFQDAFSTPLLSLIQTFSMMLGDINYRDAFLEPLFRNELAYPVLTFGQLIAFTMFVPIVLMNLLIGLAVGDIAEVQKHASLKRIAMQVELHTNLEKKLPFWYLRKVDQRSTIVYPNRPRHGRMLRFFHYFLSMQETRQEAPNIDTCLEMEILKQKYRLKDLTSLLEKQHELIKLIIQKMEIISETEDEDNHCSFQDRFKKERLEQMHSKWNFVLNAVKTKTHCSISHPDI

Row | Compound | IC50 (rat TRPA1; [1]) [µM] | EC50 (rat TRPA1; [2]) [µM] | TRPA1 Efficacy (%ITC 100 μM) (rat TRPA1; HEK-293) [%] | IC50 (rat TRPM8; [3]) [µM] | IC50 (rat TRPV3) [µM] | TRPV3 Efficacy (% IM 4 μM) (rat TRPV3) [%] | IC50 (rat TRPV4; [4]) [µM] | TRPV4 Efficacy (% IM 4 μM) (rat TRPV4; HEK-293) [%] | IC50 (rat TRPM8; IC50 TRPM8, antagonist) [µM] | EC50 (rat TRPV3) [µM] | EC50 (rat TRPV4; half-maximal increase in [Ca2+]i, HEK-293, read-out: TRPV4 Potency EC50) [µM] | EC50 (rat TRPA1) [µM] | IC50 (rat TRPA1) [µM] | IC50 TRPM8 (rat TRPM8; antagonist) | IC50 (rat TRPV4) [µM]
1 | CCCCC(C)(C)c1cc(O)c2c(c1)OC(C)(CCC=C(C)C)C=C2 (stereo not drawn) [8d, Depentyl-5-α,α-dimethylpentylcannabichromene] | 0.4 ± 0.01 | 0.15 ± 0.03 | 98.7 ± 1.9 | 23.6 ± 7.4 | > 100 | <10 | > 100 | <10 | – | – | – | – | – | – | –
2 | CCCCCCC(C)(C)c1cc(O)c(C/C=C(\C)CCC=C(C)C)c(O)c1 [7b, Depentyl-α,α-dimethylheptyl-cannabigerol] | 1.7 ± 0.15 | 9.1 ± 2 | 99.2 ± 4.5 | – | 35.4 ± 3.6 | 64.6 ± 4.8 | 35.4 ± 3.2 | 34.4 ± 5.2 | 9.2 ± 0.8 | 39.7 ± 0.03 | 39 ± 21.6 | – | – | – | –
3 | CCCCCCCc1cc(O)c2c(c1)OC(C)(CCC=C(C)C)C=C2 (stereo not drawn) [8c, Depentyl-5-n-heptylcannabichromene] | 3.8 ± 0.35 | 1.2 ± 0.2 | 97.8 ± 3.3 | > 100 | > 100 | <10 | > 100 | <10 | – | – | – | – | – | – | –
4 | CCCCCCC(C)(C)c1cc(O)c2c(c1)OC(C)(CCC=C(C)C)C=C2 (stereo not drawn) [8b, Depentyl-α,α-dimethylheptyl-cannabichromene] | – | – | 120.4 ± 2.8 | – | > 50 | 41.6 ± 1.8 | – | < 10 | > 100 | > 50 | – | 0.76 ± 0.12 | 0.32 ± 0.01 | totally inactive | > 100
5 | C=C(C)[C@@H]1CCC(C)=C[C@H]1c1c(O)cc(C(C)(C)CCCCCC)cc1O [1b, Depentyl-α,α-dimethylheptyl-cannabidiol] | 0.51 ± 0.03 | 0.4 ± 0.15 | 133.4 ± 5.3 | 13.4 ± 2.1 | 32.6 ± 5.1 | 15.8 ± 0.4 | > 100 | 34.0 ± 1.3 | – | 11 ± 1.1 | – | – | – | – | –

Reference: paper PMC8391922, “The Combined Effect of Branching and Elongation on the Bioactivity Profile of Phytocannabinoids. Part I: Thermo-TRPs” (Biomedicines, 2021)
